# In PMC5131915, “Platinum(II) Iodido Complexes of 7-Azaindoles with Significant Antiproliferative Effects: An Old Story Revisited with Unexpected Outcomes” (PLoS ONE, 2016):
# Like-named read-outs stand apart in the source and are kept apart here.
# Experiments:
# [1] = tested on: caspase 3 (Cas-3), active form p17; experiment: Ex vivo Western blot of tumour tissues, cleaved caspase 3; type: in vivo, mice; conditions: pooled tumour samples
# Experimental: Frozen tumour samples were homogenized by a bench blender IKA DI25 (IKA-Werke, Germany) in the presence of a lysis buffer [cOmplete Protease Inhibitor Cocktail (Roche, Germany), 50 mM Tris-HCl pH 7.5, 1 mM EGTA, 1 mM EDTA, 1 mM sodium orthovanadate, 50 mM sodium fluoride, 5 mM sodium pyrophosphate, 270 mM sucrose, 0.5% (v/v) Triton X-100]. Subsequently, the blended samples were centrifuged at 9.000 g at 4°C for 15 min. The supernatants were collected and the protein concentration was measured by the Brandford’s method using the Brandford reagent (Amresco, USA) according to the manufacturer’s manual. The measured samples were stored at -80°C for the following experiments.
# The expression of caspase 3, MCL-1, p53, and β-actin as loading control were evaluated by Western blot analysis and immunodetection. Lysates were mixed with a denaturing loading dye [250 mM Tris-HCl pH 6.8, 5% (v/v) β-mercaptoethanol, 10% (w/v) sodium dodecyl sulfate, 30% (v/v) glycerol, 0.04% (w/v) bromophenol blue], heated for 5 min at 70°C. […] The final protein amount was 50 μg per well. After protein separation in the gel, they were transferred on the Immun-Blot polyvinylidene difluoride membrane 0.2 μm (Bio-Rad, USA). Then, the membrane was blocked by 5% (w/v) BSA in TBST [10 mM Tris-HCl pH 7.5, 150 mM NaCl, 0.1% (v/v) Tween-20]. […] HRP was detected by Clarity Western ECL Substrate (Bio-Rad, USA) using chemiluminescent documentation system Syngene PXi-4 (UK).
# [2] = tested on: MCF7 cells; experiment: Cell cycle analysis (PI/RNase, flow cytometry), MCF7; type: cell-based, human; conditions: MCF7, 24 h, IC50 concentration
# Experimental: (§4) The A2780 and MCF7 cells (1.0 × 10^6 per well) were pre-incubated in a six-well plate for 24 h as described above. […] After 24 h, floating cells were collected and attached cells were harvested using trypsin/EDTA in PBS. Total cells were washed twice with PBS and fixed in 70% ethanol. Cells were re-suspended in PBS and DNA staining was achieved by a solution of propidium iodide (PI) supplemented with RNase A (30 min, 25°C, in the dark). […] The data were analysed using CytExpert™ software (Beckman Coulter).
# [3] = tested on: HeLa cervix carcinoma cells; experiment: In vitro cytotoxicity testing (MTT assay), HeLa; type: cell-based, human; conditions: 24 h drug exposure, no recovery, read-out: IC50±SD, HeLa
# Experimental: (§1) A2780 ovarian carcinoma, A2780R cisplatin-resistant ovarian carcinoma, HOS osteosarcoma, G361 malignant melanoma, MCF7 breast carcinoma, A549 lung carcinoma, HeLa cervix carcinoma, 22Rv1 prostate carcinoma and Caco-2 colorectal carcinoma human cancer cell lines were purchased from the European Collection of Cell Cultures (ECACC), while the human non-cancerous hepatocytes (Hep) were supplied by Biopredic Intl. The cell lines were cultured, according to the suppliers`instructions, in RPMI-1640 medium supplemented with 10% of fetal calf serum, 1% of 2 mM glutamine, and 1% penicillin/streptomycin. All cell lines were grown as adherent monolayers at 37°C and 5% CO2 in a humidified atmosphere.
# (§2) The cells were seeded to 96-well culture plates, pre-incubated in drug-free media at 37°C for 24 h and treated typically with the 0.01–50.0 μM solutions, prepared from the stock solutions by dilution with medium, for 24 h at 37°C. […] In parallel with compounds 1–8 and the reference drugs, the cells were also treated with vehicle (0.1% DMF in medium; negative control) and Triton X-100 (1%; positive control) to assess the minimal and maximal cell damage, respectively. The MTT assay was used to determine the cell viability; MTT = 3-(4,5-dimethylthiazol-2-yl)-2,5-diphenyltetrazolium bromide. A concentration of the formed dye was evaluated spectrophotometrically at 540 nm (TECAN, Schoeller Instruments LLC).
# (§3) The data were expressed as the percentage of viability, where 100% and 0% represents the treatments with negative and positive controls, respectively. The data from the cancer cells were acquired from three independent experiments (conducted in triplicate) using cells from different passages. The resulting IC50 values (μM) were calculated from viability curves and the results are presented as arithmetic mean±SD.
# [4] = tested on: A2780 cells; experiment: Cell cycle analysis (PI/RNase, flow cytometry), A2780; type: cell-based, human; conditions: A2780, 24 h, IC50 concentration
# Experimental: as §4
# [5] = tested on: 22Rv1 prostate carcinoma cells; experiment: In vitro cytotoxicity testing (MTT assay), 22Rv1; type: cell-based, human; conditions: 24 h drug exposure, no recovery, read-out: IC50±SD, 22Rv1
# Experimental: as §1, §2, §3
# [6] = tested on: MCF7 breast carcinoma cells; experiment: In vitro cytotoxicity testing (MTT assay), MCF7; type: cell-based, human; conditions: 24 h drug exposure, no recovery, read-out: IC50±SD, MCF7
# Experimental: as §1, §2, §3
# [7] = tested on: G361 malignant melanoma cells; experiment: In vitro cytotoxicity testing (MTT assay), G361; type: cell-based, human; conditions: 24 h drug exposure, no recovery, read-out: IC50±SD, G361
# Experimental: as §1, §2, §3
# [8] = tested on: A2780 cells; experiment: Cellular accumulation of platinum (ICP-MS); type: cell-based, human; conditions: 24 h treatment at IC50 concentration
# Experimental: The A2780 cells were seeded in 6-well culture plates (1×10^6 cells per well) and incubated overnight (37°C and 5% CO2 in a humidified incubator). […] The cells were washed with PBS (2 × 2 mL) after 24 h treatment, harvested by trypsin treatment, collected and centrifuged in PBS. The supernatants were discarded after centrifugation and pellets were digested in 500 μL of nitric acid (3 min at 150°C) using a microwave system Monowave300 (Anton Paar). Solutions were diluted with 4.5 mL of water and the platinum content was determined by ICP-MS. The obtained values were corrected for adsorption effects. The experiments were conducted in triplicate and the results are presented as arithmetic mean±SD.
# [9] = tested on: A549 lung carcinoma cells; experiment: In vitro cytotoxicity testing (MTT assay), A549; type: cell-based, human; conditions: 24 h drug exposure, no recovery, read-out: IC50±SD, A549
# Experimental: as §1, §2, §3
# [10] = tested on: A2780 ovarian carcinoma cells; experiment: In vitro cytotoxicity testing (MTT assay), A2780; type: cell-based, human
# Experimental: All cell lines were grown as adherent monolayers at 37°C and 5% CO2 in a humidified atmosphere.
# The MTT assay was used to determine the cell viability; MTT = 3-(4,5-dimethylthiazol-2-yl)-2,5-diphenyltetrazolium bromide. A concentration of the formed dye was evaluated spectrophotometrically at 540 nm (TECAN, Schoeller Instruments LLC).
# as §3
# [11] = 24 h drug exposure, no recovery, MTT, read-out: IC50±SD, A2780
Structure (SMILES),level of active form of Cas-3 in tumour tissue [1],G0/G1 population [2] [%],G2/M population [2] [%],S population [2] [%],sub-G1 population [2] [%],IC50 [3] [µM],G0/G1 population [4] [%],G2/M population [4] [%],S population [4] [%],sub-G1 population [4] [%],IC50 [5] [µM],IC50 [6] [µM],IC50 [7] [µM],cellular accumulation [8] [pmol Pt/10^6 A2780 cells],IC50 [9] [µM],"IC50 ([10]; 6 h exposure, read-out: IC50, A2780, time-dependent cytotoxicity) [µM]","IC50 [10, 11] [µM]","IC50 ([10]; 48 h exposure, read-out: IC50, A2780, time-dependent cytotoxicity) [µM]"
"N.N.[Cl][Pt][Cl] [Cisplatin, cisplatin, reference compound]",has not been observed,33.4±2.8,38.2±1.9,26.3±1.9,1.6±0.2,30.4 ± 11,23.7±1.5,23.0±2.2,50.6±2.8,2.0±0.2,26.9 ± 3.5,17.9 ± 3.5,5.3 ± 0.7,535±16,> 50,,,
"Brc1cc[n+]([Pt-2]([I])([I])[n+]2ccc(Br)c3cc[nH]c32)c2[nH]ccc12 [Complex 6, cis-[Pt(4Braza)2I2]]",has not been observed,73.9±4.6,16.6±2.1,7.2±1.6,1.5±0.4,3.8 ± 0.2,51.5±3.2,26.3±1.6,17.5±0.9,4.3±1.4,3.8 ± 0.1,1 ± 0.4,3.2 ± 0.2,598±97,4.3 ± 0.9,8.2 ± 0.5,3.2 ± 0.2,0.4 ± 0.1
"Cc1cc2c(Cl)cc[n+]([Pt-2]([I])([I])[n+]3ccc(Cl)c4cc(C)[nH]c43)c2[nH]1 [Complex 8, cis-[PtI2(2Me4Claza)2]]",dramatically increased,64.5±3.3,25.4±2.6,8.9±2.1,1.2±0.4,3.8 ± 0.1,55.2±2.2,23.9±2.3,18.3±1.3,2.2±0.4,3.5 ± 0.2,2.1 ± 1,1.7 ± 1.3,,3.5 ± 0.2,,1.7 ± 0.3,
